Data as given in article PMC8286599 (Gut Pathogens, 2021).
In brackets after ≈: the same amount, converted by molar mass. Like-named read-outs stand apart in the source and are kept apart here.

Assays:
[1] = test system: Salmonella Typhimurium strains; assay type: cell-based; note: key: S- Sensitive; I- Intermediate; R- Resistant
[2] = test system: Salmonella Enteritidis strains; assay type: cell-based; note: key: S- Sensitive; I- Intermediate; R- Resistant
EAEC strains [3] = experiment: MIC values of antibiotics; assay type: cell-based, enteroaggregative Escherichia coli
EAEC strains [4] = experiment: Antibiotic susceptibility testing; assay type: cell-based, enteroaggregative Escherichia coli; note: key: S- Sensitive; I- Intermediate; R- Resistant
Source text: Supplement 13099_2021_443_MOESM1_ESM.docx, table 1: Supplementary Table 1. Antibiotic susceptibility pattern of EAEC and NTS strains under study | column: Antibiotic Susceptibility testing

Row | Compound | Antibiotic Susceptibility testing ([1]; strain ST1) | Antibiotic Susceptibility testing ([1]; strain ST2) | Antibiotic Susceptibility testing ([1]; strain ST3) | Antibiotic Susceptibility testing ([2]; strain S1) | Antibiotic Susceptibility testing ([2]; strain S2) | Antibiotic Susceptibility testing ([2]; strain S3) | Antibiotic Susceptibility testing (EAEC strains [4]; strain E1) | Antibiotic Susceptibility testing (EAEC strains [4]; strain E2) | Antibiotic Susceptibility testing (EAEC strains [4]; strain E3) | also measured
1 | C[C@H]1COc2c(N3CCN(C)CC3)c(F)cc3c(=O)c(C(=O)O)cn1c23 [LE, Levofloxacin] | R | R | I |  |  |  |  |  |  | 
2 | CCN1CCN(C(=O)N[C@@H](C(=O)N[C@@H]2C(=O)N3C(C(=O)O)=C(CSc4nnnn4C)CS[C@H]23)c2ccc(O)cc2)C(=O)C1=O [CPZ, Cefoperozone] |  |  |  | S | S | S |  |  |  | 
3 | CC[C@H]1OC(=O)[C@H](C)[C@@H](O[C@H]2C[C@@](C)(OC)[C@@H](O)[C@H](C)O2)[C@H](C)[C@@H](O[C@@H]2O[C@H](C)C[C@H](N(C)C)[C@H]2O)[C@](C)(O)C[C@@H](C)CN(C)[C@H](C)[C@@H](O)[C@]1(C)O [AZM, Azithromycin] |  |  |  |  |  |  |  |  |  | Antibiotic Susceptibility testing [2]: S
4 | CO/N=C(\C(=O)N[C@@H]1C(=O)N2C(C(=O)O)=C(COC(C)=O)CS[C@H]12)c1csc(N)n1 [CTR, Cefotaxime] | S | R | S |  |  |  | S | R | R | MIC (EAEC strains [3]; Escherichia coli, strain E2): > 240 µM; MIC Values, class symbol printed instead of a number (EAEC strains [3]; strain E1): S; MIC (EAEC strains [3]; strain E3): >240 µM
5 | Cc1cc(NS(=O)(=O)c2ccc(N)cc2)no1 [SXT, Sulfamethoxazole] |  |  |  |  |  |  | R | S | R | 
6 | O=C1CN(/N=C/c2ccc([N+](=O)[O-])o2)C(=O)N1 [NIT, Nitrofurantoin] |  |  |  |  |  |  |  |  |  | Antibiotic Susceptibility testing [2]: S and R
7 | C[C@@H](O)[C@H]1C(=O)N2C(C(=O)O)=C(SCCN=CN)C[C@H]12 [IMI, Imipenem] |  |  |  |  |  |  | S | S | S | MIC Values, class symbol printed instead of a number (EAEC strains [3]; strain E1): S; MIC Values, class symbol printed instead of a number (EAEC strains [3]; strain E2): S; MIC Values, class symbol printed instead of a number (EAEC strains [3]; strain E3): S
8 | O=C(N[C@H](CO)[C@H](O)c1ccc([N+](=O)[O-])cc1)C(Cl)Cl [C, Chloramphenicol] | R | R | R | R | S | S | S | S | S | MIC Values, class symbol printed instead of a number (EAEC strains [3]; strain E1): S; MIC Values, class symbol printed instead of a number (EAEC strains [3]; strain E2): S; MIC Values, class symbol printed instead of a number (EAEC strains [3]; strain E3): S
9 | CO/N=C(\C(=O)N[C@@H]1C(=O)N2C(C(=O)[O-])=C(C[N+]3(C)CCCC3)CS[C@H]12)c1csc(N)n1 [CPM] | S | S | S | S | S | S |  |  |  | 
10 | C[C@H]1[C@H](NC(=O)/C(=N\OC(C)(C)C(=O)O)c2csc(N)n2)C(=O)N1S(=O)(=O)O [AT, Aztreonam] |  |  |  | S | S | S |  |  |  | 
11 | CO/N=C(\C(=O)N[C@@H]1C(=O)N2C(C(=O)O)=C(COC(C)=O)CS[C@H]12)c1csc(N)n1 [CTX] |  |  |  | S | S | S |  |  |  | 
12 | CCn1cc(C(=O)O)c(=O)c2ccc(C)nc21 [NA, Nalidicic Acid] | R | R | I | R | R | R |  |  |  | 
13 | O=C(O)c1cn(C2CC2)c2cc(N3CCNCC3)c(F)cc2c1=O [CIP] | R | R | R |  |  |  | S | R | R | MIC (EAEC strains [3]; strain E2): 120 µM (≈ 39.8 µg/mL); MIC (EAEC strains [3]; strain E3): 60 µM (≈ 19.9 µg/mL)
14 | C[C@@H](O)[C@H]1C(=O)N2C(C(=O)O)=C(SCCN=CN)C[C@H]12 [IPM] | S | S | S |  |  |  |  |  |  | 
15 | Cc1nnc(SCC2=C(C(=O)O)N3C(=O)[C@@H](NC(=O)Cn4cnnn4)[C@H]3SC2)s1 [CZ] | S | S | S |  |  |  |  |  |  | 
16 | COCC1=C(C(=O)O)N2C(=O)[C@@H](NC(=O)/C(=N\OC)c3csc(N)n3)[C@H]2SC1 [CPD, Cefpodoxime] |  |  |  | R | R | R |  |  |  | 
17 | CO[C@@]1(NC(=O)Cc2cccs2)C(=O)N2C(C(=O)O)=C(COC(N)=O)CS[C@@H]21 [CX] |  |  |  |  |  |  |  |  |  | Antibiotic Susceptibility testing [1]: S and R and I; Antibiotic Susceptibility testing [2]: S
18 | Colistin sulphate |  |  |  |  |  |  | S | S | S | MIC Values, class symbol printed instead of a number (EAEC strains [3]; strain E1): S; MIC Values, class symbol printed instead of a number (EAEC strains [3]; strain E2): S; MIC Values, class symbol printed instead of a number (EAEC strains [3]; strain E3): S
19 | NC[C@H]1O[C@H](O[C@H]2[C@H](O)[C@@H](O[C@H]3O[C@H](CO)[C@@H](O)[C@H](N)[C@H]3O)[C@H](N)C[C@@H]2N)[C@H](O)[C@@H](O)[C@@H]1O [K, Kanamycin] |  |  |  | R | S | S |  |  |  | 
20 | CC(C)(O/N=C(\C(=O)N[C@@H]1C(=O)N2C(C(=O)[O-])=C(C[n+]3ccccc3)CS[C@H]12)c1csc(N)n1)C(=O)O [CAZ] | S | R | I |  |  |  |  |  |  | 
21 | Cc1noc(NS(=O)(=O)c2ccc(N)cc2)c1C [SF, Sulphafurazole] |  |  |  | S | R | S |  |  |  | 
22 | CN(C)[C@@H]1C(O)=C(C(N)=O)C(=O)[C@@]2(O)C(O)=C3C(=O)c4c(O)cccc4[C@@](C)(O)[C@H]3C[C@@H]12 [TE] | R | R | R | R | S | S | R | R | R | MIC (EAEC strains [3]; strain E1): 60 µM (≈ 26.7 µg/mL); MIC (EAEC strains [3]; strain E2): 2 µM (≈ 0.889 µg/mL); MIC (EAEC strains [3]; strain E3): 30 µM (≈ 13.3 µg/mL)
23 | Nc1ccc(S(=O)(=O)Nc2ncccn2)cc1 [SD, Sulfadiazine] |  |  |  |  |  |  |  |  |  | Antibiotic Susceptibility testing [2]: R
24 | C[C@@H](O)[C@H]1C(=O)N2C(C(=O)O)=C(S[C@@H]3CN[C@H](C(=O)N(C)C)C3)[C@H](C)[C@H]12 [MRP, Meropenem] |  |  |  | S | S | S |  |  |  | 
25 | CC1(C)S[C@@H]2[C@H](NC(=O)[C@H](N)c3ccccc3)C(=O)N2[C@H]1C(=O)O [AMP] | R | R | R | R | R | R | R | R | R | MIC (EAEC strains [3]; strain E1): >240 µM; MIC (EAEC strains [3]; strain E2): >240 µM; MIC (EAEC strains [3]; strain E3): >240 µM
